From US20230192657A1, “1,2,4-TRIAZOLINONE CB1 INHIBITORS” (Goldfinch Bio, Inc., priority 2020, published 2023) come the findings set out here.

In the assay the target is CB1 receptor (Homo sapiens, UniProt P21554). Kind of assay: CB1 cAMP Antagonist Assay (LANCE Ultra cAMP kit). The assay is classed as cell-based. The settings on record: Flp-In CHO cells stably expressing the CB1 receptor; forskolin and CP55940 agonist at EC90; cAMP FRET readout. The source says: CB1 cAMP Antagonist Assay
LANCE Ultra cAMP kit (Perkin Elmer) was used to quantitate the amount of 3′,5′-cyclic adenosine monophosphate (cAMP) produced in Flp-In CHO (Invitrogen) cells stably expressing the CB1 receptor.
Forskolin was initially titrated to determine the response of the cells. The EC90 of forskolin was used for compound testing. CP55940 was titrated and used with EC90 of forskolin to determine the level of agonist stimulation. EC90 of the agonist was used for subsequent compound testing.
Forskolin (Sigma), CP55940 (Cayman Chemicals), and AM251 (MCE) were diluted in 100% DMSO, starting at 100 mM, 1 mM, and 1 mM respectively, in 3-fold serial dilutions. Test compounds were diluted in 100% DMSO starting from 10 mM, 3-fold dilutions. The cAMP assay buffer contains 1x Hank’s Buffered Saline Solution with Ca^2+ and Mg^2+ (Invitrogen), 5.3 mM HEPES (Invitrogen), 0.05% BSA, 0.5 mM IBMX (Sigma).
For all assays, cells were harvested, counted, and diluted in cAMP assay buffer to 1× 10^5 cells/mL. Only cells with viability >85% were used for the assay. Cells were seeded at 1000 cells/well in 384-well plates and 10 nL/well AM251 or test compound was added and incubated at 37° C. for 10 min. […] To detect the amount of cAMP produced, 5 µL of a 100x diluted stock of Eu-cAMP tracer and 5 µL of 200x diluted stock of Ulight-anti-cAMP were added to each well, and the plate incubated at 25° C. for 15 min. The FRET signal was read using an EnVision microplate reader (λex=320 nm, λem=615 nm and 665 nm).
The IC50 is determined by fitting the percentage of inhibition as a function of compound concentrations with the Hill equation, using a 4-parameter fit in either XLfit or GraphPad Prism.
(Time-resolved FRET reads energy transfer from a long-lived donor to a nearby acceptor.)

The structures appear in SMILES notation. Some results are limits rather than exact numbers.

Sequence of CB1 receptor (P21554 whole entry): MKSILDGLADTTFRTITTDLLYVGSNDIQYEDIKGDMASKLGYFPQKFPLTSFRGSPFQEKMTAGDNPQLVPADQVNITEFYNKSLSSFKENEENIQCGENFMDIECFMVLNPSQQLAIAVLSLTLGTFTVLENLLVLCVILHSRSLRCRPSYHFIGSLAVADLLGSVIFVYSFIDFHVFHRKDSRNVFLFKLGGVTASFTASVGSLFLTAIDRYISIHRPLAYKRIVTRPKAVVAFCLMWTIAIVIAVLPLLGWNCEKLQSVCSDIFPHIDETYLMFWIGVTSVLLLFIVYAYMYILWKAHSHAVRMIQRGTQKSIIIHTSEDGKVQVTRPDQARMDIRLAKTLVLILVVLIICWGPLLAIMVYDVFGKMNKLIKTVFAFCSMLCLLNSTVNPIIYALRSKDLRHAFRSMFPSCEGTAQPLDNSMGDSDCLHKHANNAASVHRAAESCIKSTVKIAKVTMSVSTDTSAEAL

Compound `NC(=O)Cn1c(N2C[C@]3(CCc4ccccc43)C(c3ccc(Cl)cc3)=N2)nn(Cc2ccc(Cl)cc2)c1=O` [Compound 122, 2-[3-[(1R)-3-(4-chlorophenyl)-1,2,3,5-tetrahydrospiro[indene-1,4-pyrazol]-1-yl]-1-[(4-chlorophenyl)methyl]-5-oxo-4,5-dihydro-1H-1,2,4-triazol-4-yl]acetamide] had an IC50 of 0.1 to 1 µM.

In turn, `NC(=O)Cn1c(N2C[C@]3(CCc4ccccc43)C(c3ccc(Cl)cc3)=N2)nn(-c2ccc(Cl)cc2)c1=O` [Compound 124, 2-[1-(4-chlorophenyl)-3-[(1R)-3-(4-chlorophenyl)-1,2,3,5-tetrahydrospiro[indene-1,4-pyrazol]-1-yl]-5-oxo-4,5-dihydro-1H-1,2,4-triazol-4-yl]acetamide] returned an IC50 of 0.1 to 1 µM.

Turning to `NC(=O)Cn1c(N2C[C@@]3(CCc4ccccc43)C(c3ccc(Cl)cc3)=N2)nn(Cc2ccc(Cl)cc2)c1=O` [Compound 125, 2-[3-[(1S)-3-(4-chlorophenyl)-1,2,3,5-tetrahydrospiro[indene-1,4-pyrazol]-1-yl]-1-[(4-chlorophenyl)methyl]-5-oxo-4,5-dihydro-1H-1,2,4-triazol-4-yl]acetamide], the IC50 fell in the range of 1 to 5 µM.

As to `NC(=O)CCn1c(N2C[C@]3(CCc4ccccc43)C(c3ccc(Cl)cc3)=N2)nn(-c2ccc(Cl)cc2)c1=O` [Compound 126, 3-[1-(4-chlorophenyl)-3-[(1R)-3-(4-chlorophenyl)-1,2,3,5-tetrahydrospiro[indene-1,4-pyrazol]-1-yl]-5-oxo-4,5-dihydro-1H-1,2,4-triazol-4-yl]propanamide], the half-inhibitory concentration (IC50) was in the range of 0.1 to 1 µM.

`O=C(O)CCn1c(N2C[C@]3(CCc4ccccc43)C(c3ccc(Cl)cc3)=N2)nn(Cc2ccc(Cl)cc2)c1=O` [Compound 127] displayed an IC50 above 5 µM.

`NC(=O)CCn1c(N2C[C@@]3(CCc4ccccc43)C(c3ccc(Cl)cc3)=N2)nn(-c2ccc(Cl)cc2)c1=O` [Compound 128]: the IC50 is above 5 µM.

As for `O=C(O)CCn1c(N2C[C@]3(CCc4ccccc43)C(c3ccc(Cl)cc3)=N2)nn(-c2ccc(Cl)cc2)c1=O` [Compound 129], the IC50 is above 5 µM.

Turning to `O=C(O)CCn1c(N2C[C@@]3(CCc4ccccc43)C(c3ccc(Cl)cc3)=N2)nn(-c2ccc(Cl)cc2)c1=O` [Compound 130], the IC50 is above 5 µM.

`O=C(O)CCn1c(N2C[C@@]3(CCc4ccccc43)C(c3ccc(Cl)cc3)=N2)nn(Cc2ccc(Cl)cc2)c1=O` [Compound 131] returned an IC50 above 5 µM.

Regarding `Cn1c(N2C[C@@H](c3ccccc3)C(c3ccc(Cl)cc3)=N2)nn(Cc2ccc(CN3CCOCC3)cc2)c1=O` [Compound 134], the concentration for half-maximal inhibition (IC50) was in the range of 1 to 5 µM.

On to `CN1CCN(Cc2ccc(Cn3nc(N4C[C@@H](c5ccccc5)C(c5ccc(Cl)cc5)=N4)n(C)c3=O)cc2)CC1` [Compound 135], for which the IC50 is above 5 µM.

With `Cn1c(N2C[C@H](c3ccccc3)C(c3ccc(Cl)cc3)=N2)nn(Cc2ccc(CN3CCOCC3)cc2)c1=O` [Compound 136, 3-[(4S)-3-(4-chlorophenyl)-4-phenyl-4,5-dihydro-1H-pyrazol-1-yl]-4-methyl-1-([4-[(morpholin-4-yl)methyl]phenyl]methyl)-4,5-dihydro-1H-1,2,4-triazol-5-one], the IC50 lay within 0.1 to 1 µM.

On to `CN1CCN(Cc2ccc(Cn3nc(N4C[C@H](c5ccccc5)C(c5ccc(Cl)cc5)=N4)n(C)c3=O)cc2)CC1` [Compound 137], for which the IC50 was in the range of 1 to 5 µM.

Compound `Cn1nc(N2C[C@]3(CCc4ccccc43)C(c3ccc(Cl)cc3)=N2)n(C)c1=O` [Compound 138] had an IC50 above 5 µM.

On to `Cn1nc(N2C[C@@]3(CCc4ccccc43)C(c3ccc(Cl)cc3)=N2)n(C)c1=O` [Compound 141], for which the IC50 fell in the range of 1 to 5 µM.

In the case of `COc1ccc(Cn2nc(N3C[C@@H](c4ccccc4)C(c4ccc(Cl)cc4)=N3)n(C)c2=O)cc1` [Compound 142], the IC50 lay in the range of 1 to 5 µM.

On to `COc1ccc(Cn2nc(N3C[C@H](c4ccccc4)C(c4ccc(Cl)cc4)=N3)n(C)c2=O)cc1` [Compound 143], for which the IC50 was below 0.1 µM.

Compound `Cn1c(N2C[C@H](c3ccccc3)C(c3ccc(Cl)cc3)=N2)nn(-c2ccc(CN3CCOCC3)cc2)c1=O` [Compound 144, 3-[(4S)(4-Chlorophenyl)-4-Phenyl-4,5-Dihydro-1H-Pyrazol-1-yl]-4-Methyl-1-[4-[(Morpholin-4-yl)Methyl] Phenyl]-4,5-Dihydro-1H-1,2,4-Triazol-5-One] registered an IC50 of 0.1 to 1 µM.

Regarding `NC(=O)Cn1c(N2C[C@H](c3ccccc3)C(c3ccc(Cl)cc3)=N2)nn(Cc2ccc(CN3CCOCC3)cc2)c1=O` [Compound 145, 2-[3-[(4S)-3-(4-chlorophenyl)-4-phenyl-4,5-dihydro-1H-pyrazol-1-yl]-1-([4-[(morpholin-4-yl)methyl]phenyl]methyl)-5-oxo-4,5-dihydro-1H-1,2,4-triazol-4-yl]acetamide], the IC50 lay in the range of 0.1 to 1 µM.

In turn, `Cn1c(N2C[C@@H](c3ccccc3)C(c3ccc(Cl)cc3)=N2)nn(-c2ccc(CN3CCOCC3)cc2)c1=O` [Compound 146] yielded an IC50 above 5 µM.

With `NC(=O)Cn1c(N2C[C@@]3(CCc4ccccc43)C(c3ccc(Cl)cc3)=N2)nn(CC2CCCCC2)c1=O` [Compound 147, 2-[3-[(1S)-3-(4-chlorophenyl)-1,2,3,5-tetrahydrospiro[indene-1,4-pyrazol]-1-y1]-1-(cyclohexylmethyl)-5-oxo-4,5-dihydro-1H-1,2,4-triazol-4-yl]acetamide], the IC50 is 1 to 5 µM.

On to `CN1CCN(Cc2ccc(Cn3nc(N4C[C@H](c5ccccc5)C(c5ccc(Cl)cc5)=N4)n(CC(N)=O)c3=O)cc2)CC1` [Compound 149], for which the IC50 is above 5 µM.

Compound `C[C@H](c1ccc(Cl)cc1)n1nc(N2C[C@@H](c3ccccc3)C(c3ccc(Cl)cc3)=N2)n(CC(N)=O)c1=O` [Compound 152] registered an IC50 of 1 to 5 µM.

Compound `C[C@@H](c1ccc(Cl)cc1)n1nc(N2C[C@H](c3ccccc3)C(c3ccc(Cl)cc3)=N2)n(CC(N)=O)c1=O` [Compound 153] returned an IC50 below 0.1 µM.

In turn, `C[C@H](c1ccc(Cl)cc1)n1nc(N2C[C@H](c3ccccc3)C(c3ccc(Cl)cc3)=N2)n(CC(N)=O)c1=O` [Compound 154] yielded an IC50 below 0.1 µM.

On to `CC(C(N)=O)n1c(N2CC(c3ccccc3)C(c3ccc(Cl)cc3)=N2)nn(CC2CCCCC2)c1=O` (centres unmarked) [Compound 158, 2-[3-[3-(4-chlorophenyl)-4-phenyl-4,5-dihydropyrazol-1-yl]-1-(cyclohexylmethyl)-5-oxo-1,2,4-triazol-4-yl]propanamide], for which the IC50 is below 0.1 µM.

For the compound `C[C@@H](C(N)=O)n1c(N2C[C@@H](c3ccccc3)C(c3ccc(Cl)cc3)=N2)nn(Cc2ccc(CN3CCOCC3)cc2)c1=O` [Compound 159], the IC50 lay in the range of 1 to 5 µM.

On to `Cn1c(N2CC(c3ccccc3)C(c3ccc(Cl)cc3)=N2)nn(Cc2ccc(C#N)cc2)c1=O` (centres unmarked) [Compound 160], for which the IC50 was below 0.1 µM.

Compound `Cc1ccc(Cn2nc(N3C[C@@H](c4ccccc4)C(c4ccc(Cl)cc4)=N3)n(C)c2=O)cc1` [Compound 161] displayed an IC50 of 1 to 5 µM.

`Cc1ccc(Cn2nc(N3C[C@H](c4ccccc4)C(c4ccc(Cl)cc4)=N3)n(C)c2=O)cc1` [Compound 163] yielded an IC50 below 0.1 µM.

With `C[C@H](C(N)=O)n1c(N2C[C@@H](c3ccccc3)C(c3ccc(Cl)cc3)=N2)nn(Cc2ccc(CN3CCOCC3)cc2)c1=O` [Compound 164], the IC50 was above 5 µM.

Turning to `Cn1c(N2C[C@@H](c3ccccc3)C(c3ccc(Cl)cc3)=N2)nn(Cc2ccccc2)c1=O` [Compound 166], the IC50 was 0.1 to 1 µM.

In general, IC50 refers to the concentration needed to halve the response being measured.
